Reference: patent US20250090820A1, “LOCALIZED DRUG DELIVERY TO PREVENT VASCULAR RESTENOSIS” (Ohio State Innovation Foundation, priority 2022, published 2025)

Test: Release of model compounds from sintered electrospun PCL fiber capsules
Format: physicochemical
Settings: for ranking of release of model compounds: controlled by molecular weight and available porosity
Text: Electrospinning has been used widely for drug delivery due to its versatility and ease of modification of fiber properties. However, total drug loading and release is typically limited by the inherent surface area. Instead a sintering of electrospun fiber to create injectable capsules favoring controlled delivery of low molecular weight compounds was used. As electrospun, the fully resorbable, biocompatible polymer polycaprolactone (PCL) retains its morphology out to 1,042 days of in vitro exposure, illustrating its potential for extended performance. Sintering decreases the pore size by 10- and 28-fold following 56 and 57° C. exposures, respectively. After the 58 and 59° C. exposures, these PCL capsules lose all apparent surface porosity but entrapped pores are observed in the 58° C. cross-section. […] The model drug adsorption on the available surface area (57 versus 56° C.) and entrapped porosity (59 versus 58° C.) could have also attributed to the observed ranking of release rates.
FIGS. 5A-5H show images of microstructural transformations at different temperatures (56° C. to 59° C.). […] Little difference between 56° C. and 57° C. sintering and unsintered fiber˜100% release. […] At 58° C. and 59° C. release is flipped: faster release at lower porosity. RhB is a relatively small molecule. Intermittent adsorption to surface of remaining porosity greatly slows release. […] No condition achieves˜100% release out to 12 days. […] At 58° C. and 59° C. release are still flipped but not as dramatic: faster release at lower porosity. Intermittent adsorption to surface of remaining porosity continues to slow release but increased molecular weight decreases net differences in diffusion. […] Much larger molecule needs fully open porosity for any release to occur. […] Diffusion through dense PCL is zero. […] FIGS. 11A-11B show relatively little porosity remains. This makes a substantial difference in diffusion and surface controlled release. Sequestration within the wall. FIGS. 12A-12D and 13A-13F show controlled salt confinement for controlled porosity using HEPES salt. […] Extraction was performed using deionized water at 37° C. for 24 hours plus gentle shaking. In most cases extraction was nearly complete. It is likely that Na^+ was retained and has measurable effects on mechanical properties.

Row | percent RB release of 200 μg (any sintering condition, out to 12 days) [%] | RB release profile (capsules sintered at 58° C. and 59° C.) | ranking of release of model compounds | percent RhB release of 200 μg (56° C. and 57° C. sintering and unsintered fiber) [%] | RhB release profile (capsules sintered at 58° C.) | Compound | Diffusion through dense PCL (dense PCL wall) | BSA-FITC release profile (release of 200 μg versus time, needs fully open porosity)
1 | < 100 | linear release out to 12 days | RhB>RB>>BSA-FITC |  |  | O=C1OC2(c3cc(I)c(O)c(I)c3Oc3c2cc(I)c(O)c3I)c2c(Cl)c(Cl)c(Cl)c(Cl)c21 [RB, Rose Bengal] |  | 
2 |  |  | RhB>RB>>BSA-FITC | ~100 | linear release out to 12 days | CCN(CC)c1ccc2c(-c3ccccc3C(=O)O)c3ccc(=[N+](CC)CC)cc-3oc2c1.[Cl-] [RhB, Rhodamine B] |  | 

Row | Compound | percent RB release of 200 μg (any sintering condition, out to 12 days) [%] | RB release profile (capsules sintered at 58° C. and 59° C.) | ranking of release of model compounds | percent RhB release of 200 μg (56° C. and 57° C. sintering and unsintered fiber) [%] | RhB release profile (capsules sintered at 58° C.) | Diffusion through dense PCL (dense PCL wall) | BSA-FITC release profile (release of 200 μg versus time, needs fully open porosity)
3 | albumin-fluorescein isothiocyanate conjugate from bovine serum [BSA-FITC] |  |  | RhB>RB>>BSA-FITC |  |  | zero | Release plateaus quickly
